The values that follow come from BindingDB's records for PubMed 37639823 (Shenyang Pharmaceutical University).

The experiment in a line: Inhibition of NLRP3 inflammasome in mouse BMDMs assessed as reduction in pyroptosis activity preincubated with LPS for 4 hrs followed by compound addition for 30 mins prior to nigericin addition and measured after 1 hr by ELISA.

`COc1c(O)cc2c(c1C)C(=O)C=C1[C@@]2(C)CC[C@@]2(C)[C@@H]3C[C@@H](C)C(=O)[C@@H](O)[C@]3(C)CC[C@]12C`: the concentration for half-maximal inhibition (IC50) turned out to be 2210 nM.

`CC1=C(O)C(=O)C=C2C1=CC=C1[C@@]2(C)[C@@H](Br)C[C@@]2(C)[C@@H]3C[C@@H](C)C(=O)C[C@]3(C)CC[C@]12C`: the IC50 came out at 130 nM.

For orientation: IC50 means the concentration at which inhibition is half-maximal.
